Measurements: US20260200923A1, “HETEROCYCLIC COMPOUNDS TARGETING THE NUDT5 PROTEIN” (Oxford University Innovation Limited, priority 2022, published 2026)

How the values were obtained:
[1] = test system: HAP1 cells; assay: untargeted global proteomics; format: cell-based, human; conditions: 100 nM, 6 and 24 h
Experimental: Proteomics samples were digested with trypsin using STrap columns following the manufacturer's protocol (C02-micro, ProtiFi). For untargeted global proteomics HAP1 cells were treated with DMSO or 100 nM dNUDT5 for 6 h or 24 h. Then, the cell pellets were collected and lysed in 5% SDS containing 1 μL/mL benzonase (E1014, Millipore) and subsequent short sonication to shear genomic DNA (1× 2 s pulse, 20% amplitude, microtip, Sonics Vibra Cell). 50 μg protein from the total cell lysate or 80% of the elution fraction of the chemical pulldown were first reduced by 20 mM dithiothreitol (M02712, Fluorochem), and alkylated by 40 mM iodoacetamide (I1149, Sigma). Phosphoric acid and S-Trap protein binding buffer were added into the sample lysates. Then, the SDS lysate/S-Trap buffer were loaded into a S-Trap column (C02-micro-80, ProtiFi). 1 μg of trypsin (V5111, Promega) was used to digest each sample at 37° C. for 20 h. The samples were then eluted and dried by vacuum centrifugation. […]
Raw data were searched against the human database (UP000005640, downloaded 08/21) using DIA-NN (Demichev et al. 2020 Nature Methods) by enabling FASTA digest for library free search and Deep learning-based spectra, RTs and IMs prediction. […] The protein groups matrix was further analysed using Perseus (1.6.2.1) or R studio (4.1.1). […] Proteins were removed if detected less than 2 times in each group. […]

[2] = target: T1, NUDT5-PPAT interaction (Homo sapiens, UniProt Q9UKK9); assay: immunoprecipitation of endogenous PPAT; format: cell-based; conditions: HAP1 cells, 100 nM, 20 h
T1 construct: endogenous in cells; host or cells: HAP1 WT
Experimental: For detecting TH5427 interactors and the PPAT-NUDT5 interaction, protein samples were prepared using RIPA buffer containing benzonase (E1014-25KU, Sigma-Aldrich). Protein concentration was measured by DC assay (U.S. Pat. Nos. 5,000,113, 5,000,114, 5,000,115, Biorad). 30 μg protein out of each sample was separated on a SDS-page gel (3450125, Biorad) and transferred to a nitrocellulose membrane (10600014, Sigma-Aldrich) at 0.4 A for 1 h. The membranes were blocked by 5% BLOT-QuickBlocker in PBS-T at room temperature for 1 h (786-011, Bioscience) and incubated with primary antibodies at 4° C. overnight. Then, fluorophor conjugated secondary antibodies diluted 1:500 in 2×BLOT-QuickBlocker in PBS-T were added onto the membrane for 1 h at room temperature. Protein bands were visualized by a Odyssey® DLx Imaging System (Licor). The following primary antibodies were used: NUDT5 (ab129172, Abeam, 1:1000, anti-rabbit) or NUDT5 (sc-398644, 1:200, anti-mouse), β-actin (sc-69879, Santa Cruz Biotechnology, 1:200) and PPAT (15401-1-AP, Proteintech, 1:1000). The following secondary antibodies were used: Alexa Fluor 750 goat anti-mouse IgG (A21037, Life technologies) and goat anti-rabbit IgG (H+L) cross-adsorbed secondary Antibody, Alexa Fluor 647 (A21244, Life technologies).
HAP-1 WT cells were treated with 100 nM TH5427, dNUDT5 or DMSO for 20 h in a 100 mm dish. […]

Cn1c(=O)c2c(nc(N3CCN(C(=O)N4CCC(CN5CCN(c6ccc7c(c6)C(=O)N(C6CCC(=O)NC6=O)C7=O)CC5)CC4)CC3)n2Cc2nnc(-c3ccc(Cl)c(Cl)c3)o2)n(C)c1=O (stereo not drawn) [dNUDT5, 7-((5-(3,4-dichlorophenyl)-1,3,4-oxadiazol-2-yl)methyl)-8-(4-(4-((4-(2-(2,6-dioxopiperidin-3-yl)-1,3-dioxoisoindolin-5-yl)piperazin-1-yl)methyl)piperidine-1-carbonyl)piperazin-l-yl)-1,3-dimethyl-3,7-dihydro-1H-purine-2,6-dione]
proteome-wide specificity of degradation [1]: highly specific for NUDT5 with no other protein being degraded | amount of NUDT5 interacting with PPAT [2]: strongly reduced the amount of NUDT5 interacting with PPAT
